Among the data in patent US20250032623A1, “HETEROBIFUNCTIONAL COMPOUNDS AND THEIR USE IN TREATING DISEASE” (HALDA THERAPEUTICS OPCO, INC., priority 2021, published 2025) are GI50 and Kd values, retold here.

Molecules are shown by their SMILES.

Broadly, the GI50 is the concentration at which growth is held to half of that of the control. Usually Kd stands for the equilibrium constant for the complex coming apart.

One test concerns HEK293 cells. In words: Cellular growth inhibition assay (CellTiter-Glo), HEK293 cells. Conditions: Homo sapiens, 72 h, three days compound treatment, CellTiter-Glo 2.0, read-out: CTG HEK293 GI50. The test is classed as cell-based. As for the experimental part: (§1) Exemplary compounds were tested for ability to inhibit the proliferation of HEK293 cells or HeLa cells.
(§2) HEK293 and HeLa cells were cultured in DMEM medium supplemented with 10% fetal bovine serum and 1% Penn/Strep. Cells were seeded in white 384-well plates at 500 cells/well in […] complete medium. Following seeding, plates were spun at 300×g for three minutes and cultured at 37° C. with 5% CO2 in a humidified tissue culture incubator.
(§3) After 24 hours, compounds were titrated in 100% DMSO and diluted in complete cell culture medium. […] of compound/media mixture was added to cells to bring total volume in well to […]. DMSO alone was used as a negative control. P lates were then spun at 300×g for three minutes and stored at 37° C. with 5% CO2 for three days.
(§4) On Day 0 and Day 3 of compound treatment, cell viability was quantified with CellTiter-Glo 2.0 reagent (Promega). After equilibrating microplates at room temperature for 30 minutes, 25 μL CellTiter-Glo 2.0 reagent was dispensed into each well to bring total volume to […]. Plates were mixed on shaker for 2 minutes at 500 rpm, followed by a 10-minute incubation at room temperature. Following a quick spin, luminescence readings were measured with an EnVision Plate Reader. Data was normalized to DMSO treated Day 0 and Day 3 readings. A four-parameter non-linear regression curve fit was applied to dose-response data in GraphPad Prism data analysis software to determine the half maximal growth inhibitory concentration (GI50) for each compound.

The subject of a further test is HeLa cells. The test is described as follows: Cellular growth inhibition assay (CellTiter-Glo), HeLa cells. In kind it is cell-based. Conditions: Homo sapiens, 72 h, three days compound treatment, CellTiter-Glo 2.0, read-out: CTG HELA GI50. As for the experimental part: as §1, §2, §3, §4
A general note: ATP-based viability assays read luminescence as a measure of living cells.

The target in the next test is T1, EGFR (Homo sapiens, UniProt P00533).
T1 construct: purchased
T1 sequence (P00533 25-1210): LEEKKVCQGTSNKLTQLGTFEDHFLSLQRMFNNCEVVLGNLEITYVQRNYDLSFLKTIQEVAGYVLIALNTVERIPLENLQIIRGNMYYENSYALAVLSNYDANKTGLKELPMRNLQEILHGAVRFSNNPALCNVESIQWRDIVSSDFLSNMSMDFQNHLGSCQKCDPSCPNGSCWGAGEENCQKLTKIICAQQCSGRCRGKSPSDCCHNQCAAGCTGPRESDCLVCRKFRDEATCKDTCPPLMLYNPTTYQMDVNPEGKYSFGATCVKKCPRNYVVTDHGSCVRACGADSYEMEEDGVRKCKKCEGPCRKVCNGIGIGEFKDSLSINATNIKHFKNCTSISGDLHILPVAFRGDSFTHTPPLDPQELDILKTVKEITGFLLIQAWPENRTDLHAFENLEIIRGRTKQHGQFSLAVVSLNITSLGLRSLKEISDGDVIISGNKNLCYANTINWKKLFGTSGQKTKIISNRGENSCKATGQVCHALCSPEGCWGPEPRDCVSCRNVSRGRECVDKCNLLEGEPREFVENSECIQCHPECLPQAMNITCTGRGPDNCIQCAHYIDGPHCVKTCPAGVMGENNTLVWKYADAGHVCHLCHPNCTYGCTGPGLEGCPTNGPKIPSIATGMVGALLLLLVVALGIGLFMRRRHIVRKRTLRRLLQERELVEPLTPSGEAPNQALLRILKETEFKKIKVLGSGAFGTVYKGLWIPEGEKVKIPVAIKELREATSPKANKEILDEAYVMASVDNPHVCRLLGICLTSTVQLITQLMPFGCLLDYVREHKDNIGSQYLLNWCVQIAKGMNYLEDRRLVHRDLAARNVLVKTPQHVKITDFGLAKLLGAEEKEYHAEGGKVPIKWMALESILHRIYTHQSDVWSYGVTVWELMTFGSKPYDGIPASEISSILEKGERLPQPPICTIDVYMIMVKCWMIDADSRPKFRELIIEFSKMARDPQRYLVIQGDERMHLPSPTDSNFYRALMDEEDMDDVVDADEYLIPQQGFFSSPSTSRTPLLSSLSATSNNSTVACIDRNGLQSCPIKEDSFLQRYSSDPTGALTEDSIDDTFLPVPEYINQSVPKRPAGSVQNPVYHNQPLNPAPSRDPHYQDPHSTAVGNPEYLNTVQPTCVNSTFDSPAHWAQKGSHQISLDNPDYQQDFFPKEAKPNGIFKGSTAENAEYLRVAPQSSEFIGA
The test is described as follows: KdELECT binding assay, EGFR. Here is the method:
Exemplary compounds were tested for ability to bind to EGFR.
(§5) Compounds were tested using a KdELECT assay. Kinase-tagged T7 phage strains were prepared in an E. coli host derived from the BL21 strain. E. coli were grown to log-phase and infected with T7 phage and incubated with shaking at 32° C. until lysis. The lysates were centrifuged and filtered to remove cell debris. The remaining kinases were produced in HEK-293 cells and subsequently tagged with DNA for qPCR detection. Streptavidin-coated magnetic beads were treated with biotinylated small molecule ligands for 30 minutes at room temperature to generate affinity resins for kinase assays. The liganded beads were blocked with excess biotin and washed with blocking buffer (SeaBlock (Pierce), 1% BSA, 0.05% Tween 20, 1 mM DTT) to remove unbound ligand and to reduce non-specific binding. Binding reactions were assembled by combining kinases, liganded affinity beads, and test compounds in 1× binding buffer (20% SeaBlock, 0.17×PBS, 0.05% Tween 20, 6 mM DTT). Test compounds were prepared as 111× stocks in 100% DMSO. Kd values were determined using an 11-point 3-fold compound dilution series with three DMSO control points. All compounds for Kd measurements are distributed by acoustic transfer (non-contact dispensing) in 100% DMSO. The compounds were then diluted directly into the assays such that the final concentration of DMSO was 0.9%. All reactions performed in polypropylene 384-well plate. Each was a final volume of 0.02 mL. The assay plates were incubated at room temperature with shaking for 1 hour and the affinity beads were washed with wash buffer (1× PBS, 0.05% Tween 20). The beads were then re-suspended in elution buffer (1× PBS, 0.05% Tween 20, 0.5 μM nonbiotinylated affinity ligand) and incubated at room temperature with shaking for 30 minutes. The kinase concentration in the eluates was measured by qPCR.

The target in test [1] is T2, EGFR T790M, L858R (amino acids 669-1011 Accession Number NP_005219.2) (Homo sapiens, UniProt P00533, L858R/T790M).
T2 construct: purchased Eurofins Discovery; host or cells: mammalian cells (HEK-293)
T2 sequence (P00533 669-1011 T790M/L858R): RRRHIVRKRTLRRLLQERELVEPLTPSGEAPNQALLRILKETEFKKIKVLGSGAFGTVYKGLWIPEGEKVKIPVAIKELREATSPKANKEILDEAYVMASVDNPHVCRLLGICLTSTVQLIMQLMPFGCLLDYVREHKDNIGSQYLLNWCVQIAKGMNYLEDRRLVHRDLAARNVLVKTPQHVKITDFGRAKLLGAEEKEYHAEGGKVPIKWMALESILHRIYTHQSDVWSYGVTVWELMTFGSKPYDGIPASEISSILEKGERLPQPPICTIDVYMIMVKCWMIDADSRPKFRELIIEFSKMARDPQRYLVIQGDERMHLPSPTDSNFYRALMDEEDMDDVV
The test is described as follows: KdELECT binding assay (Eurofins Discovery), EGFR T790M, L858R. To be noted: read-out: EGFR DM Kd. As for the experimental part:
(§6) Exemplary compounds were tested for ability to bind to EGFR WT (amino acids 669-1011, Accession Number NP_005219.2) or EGFR T790M, L858R (amino acids 669-1011 Accession Number NP_005219.2) expressed from bacteria or mammalian cells, respectively. Compounds were tested using the KdELECT assay at Eurofins Discovery.
as §5, with “Kinase-tagged” for “Compounds were tested using a KdELECT assay. Kinase-tagged”

For test [2], the target named is T3, EGFR WT (amino acids 669-1011, Accession Number NP_005219.2) (Homo sapiens, UniProt P00533).
T3 construct: purchased Eurofins Discovery; host or cells: bacteria (E. coli, BL21-derived, T7 phage)
T3 sequence (P00533 669-1011): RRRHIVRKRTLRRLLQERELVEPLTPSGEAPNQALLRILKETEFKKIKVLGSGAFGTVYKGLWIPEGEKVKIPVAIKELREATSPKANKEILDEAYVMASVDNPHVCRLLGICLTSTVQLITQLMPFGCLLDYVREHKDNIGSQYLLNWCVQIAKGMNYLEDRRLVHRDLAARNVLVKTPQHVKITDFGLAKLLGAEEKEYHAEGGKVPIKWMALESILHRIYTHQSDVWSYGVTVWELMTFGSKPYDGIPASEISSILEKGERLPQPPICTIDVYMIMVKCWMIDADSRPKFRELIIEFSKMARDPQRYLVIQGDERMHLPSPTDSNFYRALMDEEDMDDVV
In words: KdELECT binding assay (Eurofins Discovery), EGFR WT. Here is the method:
as §6
as §5, with “Kinase-tagged” for “Compounds were tested using a KdELECT assay. Kinase-tagged”

On to `C=CC(=O)Nc1cc(Nc2nccc(-c3cn(C)c4ccccc34)n2)c(OC)cc1N(C)CCN(C)CCOCCOCCOCCOCCON(C)C(=O)N1N=C(c2cc(F)ccc2F)SC1(CCCN)c1ccccc1` (stereo not drawn) [Compound I-67], for which the GI50 with HEK293 cells and in the test with HeLa cells was 500 to 1500 nM in each case. In addition, the figures for the Kd (at EGFR; in test [1]; in test [2]) were under 50 nM, under 50 nM and 50 to 500 nM, respectively.
Regarding `C=CC(=O)Nc1cc(Nc2nccc(-c3cn(C)c4ccccc34)n2)c(OC)cc1N(C)CCN(C)CCOCCOCCOCCOCCOCCOCCOCCOCCON(C)C(=O)N1N=C(c2cc(F)ccc2F)SC1(CCCN)c1ccccc1` (stereo not drawn) [Compound I-69], the figures for the concentration for 50% growth inhibition (GI50) in the test with HEK293 cells and in the test with HeLa cells were 500 to 1500 nM and under 500 nM, respectively. Further, the Kd on EGFR was under 50 nM; in test [1], under 50 nM; in test [2], 500 to 2500 nM.
Regarding `CC[C@@H]1C(=O)N(C)c2cnc(Nc3ccc(C(=O)NCCOCCOCCOCCOCCOCCOCCN(C)C/C=C/C(=O)Nc4cc(Nc5nccc(-c6cn(C)c7ccccc67)n5)c(OC)cc4N(C)CCN(C)C)cc3OC)nc2N1C1CCCC1` [Compound I-118, 4-[[(7R)-8-cyclopentyl-7-ethyl-5-methyl-6-oxo-7H-pteridin-2-yl]amino]-N-[2-[2-[2-[2-[2-[2-[2-[[(E)-4-[2-[2-(dimethylamino)ethyl-methyl-amino]-4-methoxy-5-[[4-(1-methylindol-3-yl)pyrimidin-2-yl]amino]anilino]-4-oxo-but-2-enyl]-methyl-amino]ethoxy]ethoxy]ethoxy]ethoxy]ethoxy]ethoxy]ethyl]-3-methoxy-benzamide], the GI50 in the test on HEK293 cells fell in the range of 500 to 1500 nM. In addition, the results for the dissociation constant Kd (at EGFR; in test [1]; in test [2]) were over 2500 nM, 50 to 500 nM and over 2500 nM, respectively.
`CCC1C(=O)N(C)c2cnc(Nc3ccc(C(=O)NCCOCCOCCN(C)CC=CC(=O)NC4CN(c5nc(Nc6cn(C)nc6OC)c6ncn(C)c6n5)CC4F)cc3OC)nc2N1C1CCCC1` [Compound I-120, 4-[[(7R)-8-cyclopentyl-7-ethyl-5-methyl-6-oxo-7H-pteridin-2-yl]amino]-N-[2-[2-[2-[[(E)-4-1[[(3R,4R)-4-fluoro-1-[6-1[(3-methoxy-1-methyl-pyrazol-4-yl)amino]-9-methyl-purin-2-yl]pyrrolidin-3-yl]amino]-4-oxo-but-2-enyl]-methylamino]ethoxy]ethoxy]ethyl]-3-methoxy-benzamide]: the concentration for 50% growth inhibition (GI50) with HEK293 cells was in the range of 500 to 1500 nM. Moreover, the equilibrium dissociation constant (Kd) at EGFR is over 2500 nM; in test [1], 50 to 500 nM; in test [2], over 2500 nM.
With `CC[C@@H]1C(=O)N(C)c2cnc(Nc3ccc(C(=O)NCCOCCOCCOCCOCCOCCOCCN(C)C/C=C/C(=O)NC4CN(c5nc(Nc6cn(C)nc6OC)c6ncn(C)c6n5)C[C@H]4F)cc3OC)nc2N1C1CCCC1` (stereo partly drawn) [Compound I-121, 4-[[(7R)-8-cyclopentyl-7-ethyl-5-methyl-6-oxo-7H-pteridin-2-yl]amino]-N-[2-[2-[2-[2-[2-[2-[2-[[(E)-4-[1[(3R,4R)-4-fluoro-1-1[6-1[(3-methoxy-1-methyl-pyrazol-4-yl)amino]-9-methyl-purin-2-yl]pyrrolidin-3-yl]amino]-4-oxo-but-2-enyl]-methyl-amino]ethoxy]ethoxy]ethoxy]ethoxy]ethoxy]ethoxy]ethyl]-3-methoxy-benzamide], the GI50 in the test with HEK293 cells was 500 to 1500 nM. Moreover, the Kd lay in the range of 500 to 2500 nM on EGFR, 50 to 500 nM in test [1] and 500 to 2500 nM in test [2].
As for `C=CC(=O)Nc1cc(Nc2nccc(-c3cn(C)c4ccccc34)n2)c(OC)cc1N(C)CCN(C)CCCN1CCN(CCCNC(=O)c2ccc(Nc3ncc4c(n3)N(C3CCCC3)[C@H](CC)C(=O)N4C)c(OC)c2)CC1` [Compound I-122, 4-[(8-cyclopentyl-7-ethyl-5-methyl-6-oxo-7H-pteridin-2-yl)amino]-3-methoxy-N-[3-[4-[3-[2-[5-methoxy-N-methyl-4-[[4-(1-methylindol-3-yl)pyrimidin-2-yl]amino]-2-(prop-2-enoylamino)anilino]ethyl-methyl-amino]propyl]piperazin-1-yl]propyl]benzamide], the GI50 in the test on HEK293 cells and in the test with HeLa cells was 1500 to 5000 nM in each case. Further, the Kd was 50 to 500 nM at EGFR, under 50 nM in test [1] and 500 to 2500 nM in test [2].
Turning to `CC[C@@H]1C(=O)N(C)c2cnc(Nc3ccc(C(=O)NCCOCCOCCOCCOCCN(C)C/C=C/C(=O)Nc4cc(Nc5nccc(-c6cn(C)c7ccccc67)n5)c(OC)cc4N(C)CCN(C)C)cc3OC)nc2N1C1CCCC1` [Compound I-123, 4-[[(7R)-8-cyclopentyl-7-ethyl-5-methyl-6-oxo-7H-pteridin-2-yl]amino]-N-[2-[2-1[2-[2-[2-[[(E)-4-[2-1[2-(dimethylamino)ethyl-methyl-amino]-4-methoxy-5-[1[4-(1-methylindol-3-yl)pyrimidin-2-yl]amino]anilino]-4-oxo-but-2-enyl]-methyl-amino]ethoxy]ethoxy]ethoxy]ethoxy]ethyl]-3-methoxy-benzamide], the GI50 in the test with HEK293 cells and in the test on HeLa cells was 500 to 1500 nM each time. Further, the Kd on EGFR was over 2500 nM; in test [1] it was under 50 nM; in test [2], over 2500 nM.
Turning to `COc1cc(N(C)CCN(C)C)c(NC(=O)/C=C/CN(C)CCCN2CCN(CCCON(C)C(=O)N3N=C(c4cc(F)ccc4F)S[C@@]3(CCCN)c3ccccc3)CC2)cc1Nc1nccc(-c2cn(C)c3ccccc23)n1` [Compound I-146, (2S)-2-(3-aminopropyl)-5-(2,5-difluorophenyl)-N-[3-[4-1[3-[[(E)-4-1[2-[2-(dimethylamino)ethyl-methyl-amino]-4-methoxy-5-1[[4-(1-methylindol-3-yl)pyrimidin-2-yl]amino]anilino]-4-oxo-but-2-enyl]-methyl-amino]propyl]piperazin-1-yl]propoxy]-N-methyl-2-phenyl-1,3,4-thiadiazole-3-carboxamide], in the test with HeLa cells, the GI50 lay within 500 to 1500 nM. The equilibrium dissociation constant (Kd) at EGFR is 500 to 2500 nM; in test [1] it was under 50 nM; in test [2] it was 500 to 2500 nM.
